The values below come from PubChem BioAssay AID248 (DTP/NCI, 2004).

The structures appear in SMILES notation. “And” between values parts separate entries of the source, which are not always exact repeats. Equal entries are not always repeated. Toxic doses and inconclusive results are not listed.

The assay relates to L1210 leukemia ip in BDF1 mice, survival T/C. Kind of assay: NCI In Vivo Anticancer Drug Screen. Data for tumor model L1210 Leukemia (intraperitoneal) in B6D2F1 (BDF1) mice. The note with it: endpoint: mean survival time, higher = longer survival. The essentials: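 Value reflects the ratio of survival in compound-treated mice to survival in vehicle-treated controls, with both groups carrying the same transplanted tumor.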

[1] abbreviates: dose: 100.0 mg/kg/injection, schedule: Q01DX001 (ip), vehicle: saline.
[2] abbreviates: dose: 200.0 mg/kg/injection, schedule: Q01DX001 (ip), vehicle: saline.
The mark [3] stands for this setting: dose: 400.0 mg/kg/injection, schedule: Q01DX001 (ip), vehicle: saline.
[4] abbreviates: dose: 100.0 mg/kg/injection, schedule: Q04DX003 (ip), vehicle: saline with Tween-80.
Where [5] appears, read: dose: 200.0 mg/kg/injection, schedule: Q04DX003 (ip), vehicle: saline with Tween-80.
Where [6] appears, read: dose: 400.0 mg/kg/injection, schedule: Q04DX003 (ip), vehicle: saline with Tween-80.
Setting [7] is: dose: 100.0 mg/kg/injection, schedule: Q01DX009 (ip), vehicle: Klucel (hydroxypropylcellulose) (HPC).
Setting [8] is: dose: 100.0 mg/kg/injection, schedule: Q04DX003 (ip), vehicle: Klucel (hydroxypropylcellulose) (HPC).
Where [9] appears, read: dose: 200.0 mg/kg/injection, schedule: Q01DX009 (ip), vehicle: Klucel (hydroxypropylcellulose) (HPC).
The mark [10] stands for this setting: dose: 400.0 mg/kg/injection, schedule: Q01DX009 (ip), vehicle: Klucel (hydroxypropylcellulose) (HPC).
The mark [11] stands for this setting: dose: 100.0 mg/kg/injection, schedule: Q01DX001 (ip), vehicle: Klucel (hydroxypropylcellulose) (HPC).
Setting [12] is: dose: 200.0 mg/kg/injection, schedule: Q01DX001 (ip), vehicle: Klucel (hydroxypropylcellulose) (HPC).
[13] abbreviates: dose: 400.0 mg/kg/injection, schedule: Q01DX001 (ip), vehicle: Klucel (hydroxypropylcellulose) (HPC).
Where [14] appears, read: dose: 100.0 mg/kg/injection, schedule: Q01DX009 (ip), vehicle: saline with Tween-80.
Where [15] appears, read: dose: 200.0 mg/kg/injection, schedule: Q01DX009 (ip), vehicle: saline with Tween-80.
[16] abbreviates: dose: 400.0 mg/kg/injection, schedule: Q01DX009 (ip), vehicle: saline with Tween-80.
Where [17] appears, read: dose: 25.0 mg/kg/injection, schedule: Q04DX003 (ip), vehicle: Klucel (hydroxypropylcellulose) (HPC).

Turning to `O=C(c1cc(C(F)(F)F)cc(C(F)(F)F)c1)N1CC1`, the T/C is, setting by setting: (dose: 6.25 mg/kg/injection, schedule: Q01DX009 (ip), vehicle: water) 96 % of control; (dose: 12.5 mg/kg/injection, schedule: Q01DX009 (ip), vehicle: water) 91 % of control; (dose: 25.0 mg/kg/injection, schedule: Q01DX009 (ip), vehicle: water) 95 % of control; (dose: 50.0 mg/kg/injection, schedule: Q01DX009 (ip), vehicle: water) 93 % of control and 86 % of control; (dose: 100.0 mg/kg/injection, schedule: Q01DX009 (ip), vehicle: water) 88 % of control; (dose: 200.0 mg/kg/injection, schedule: Q01DX009 (ip), vehicle: water) 95 % of control and 89 % of control. Besides, the T/C (dose: 400.0 mg/kg/injection, schedule: Q01DX009 (ip), vehicle: water) is 86 % of control.

As to `CC(=O)OC1OCC(COC(=O)c2ccc([N+](=O)[O-])cc2)C1OC(=O)c1ccc([N+](=O)[O-])cc1` (centres undefined), the T/C by setting is: under setting [1], 92 % of control; under setting [2], 92 % of control; under setting [3], 95 % of control.

Turning to `S=C(S)NCCc1ccccn1`, the T/C is 95 % of control under setting [4], 87 % of control under setting [5] and 98 % of control under setting [6].

Turning to `Cc1cc(Br)c(C)cc1Br`, the T/C was 100 % of control (dose: 50.0 mg/kg/injection, schedule: Q01DX001 (ip), vehicle: saline); 100 % of control under setting [1]; 98 % of control under setting [7]; 100 % of control under setting [8]; 103 % of control under setting [2]; 93 % of control under setting [9]. The T/C (dose: 200.0 mg/kg/injection, schedule: Q04DX003 (ip), vehicle: Klucel (hydroxypropylcellulose) (HPC)) is 98 % of control; the T/C under setting [3] is 103 % of control; the T/C under setting [10] was 90 % of control; the T/C (dose: 400.0 mg/kg/injection, schedule: Q04DX003 (ip), vehicle: Klucel (hydroxypropylcellulose) (HPC)) was 100 % of control.

Consider `O=C(O)c1ccccc1Cc1cccc2c(Cl)cccc12`, for which the T/C was 97 % of control under setting [11], 98 % of control under setting [12] and 101 % of control under setting [13].

Take `O=S(=O)(Nc1ncccn1)c1ccc(N=NSC2=NC=NC3=NC=NC32)cc1` (centres undefined): the T/C is, setting by setting: (dose: 100.0 mg/kg/injection, schedule: Q01DX001 (ip), vehicle: other) 104 % of control; (dose: 200.0 mg/kg/injection, schedule: Q01DX001 (ip), vehicle: other) 124 % of control; (dose: 400.0 mg/kg/injection, schedule: Q01DX001 (ip), vehicle: other) 106 % of control.

On to `CC(=O)N(CC#CCN(C(C)=O)c1ccccc1)c1ccccc1`, for which the T/C is 111 % of control (dose: 100.0 mg/kg/injection, schedule: Q04DX002 (ip), vehicle: other); 105 % of control (dose: 200.0 mg/kg/injection, schedule: Q04DX002 (ip), vehicle: other); 97 % of control (dose: 400.0 mg/kg/injection, schedule: Q04DX002 (ip), vehicle: other).

In the case of `CC12CCC(=O)C=C1CCC1C2C(=O)CC2(C)C1CCC2(O)C(=O)CSc1ncnc2nc[nH]c12` (centres undefined), the T/C was 103 % of control (dose: 100.0 mg/kg/injection, schedule: Q01DX001 (sc), vehicle: steriod suspending solution); 106 % of control (dose: 200.0 mg/kg/injection, schedule: Q01DX001 (sc), vehicle: steriod suspending solution); 112 % of control (dose: 400.0 mg/kg/injection, schedule: Q01DX001 (sc), vehicle: steriod suspending solution).

Regarding `N#CC1C(=O)N=C(c2ccccc2)CC1c1ccccc1` (centres undefined), the T/C is 86 % of control (dose: 100.0 mg/kg/injection, schedule: Q01DX001 (ip), vehicle: saline with Tween-80); 96 % of control (dose: 200.0 mg/kg/injection, schedule: Q01DX001 (ip), vehicle: saline with Tween-80); 104 % of control (dose: 400.0 mg/kg/injection, schedule: Q01DX001 (ip), vehicle: saline with Tween-80).

In the case of `CCCCCCCc1ccc(N=Cc2ccc(OCCC)cc2)cc1`, the T/C is 100 % of control under setting [14], 87 % of control under setting [15] and 86 % of control under setting [16].

Turning to `Cc1cc(C(=O)O)c(C)n1-c1cccc2ccccc12`, the T/C is, setting by setting: (dose: 75.0 mg/kg/injection, schedule: Q04DX003 (ip), vehicle: Klucel (hydroxypropylcellulose) (HPC)) 98 % of control; under setting [7], 102 % of control; (dose: 150.0 mg/kg/injection, schedule: Q04DX003 (ip), vehicle: Klucel (hydroxypropylcellulose) (HPC)) 98 % of control; under setting [9], 108 % of control; (dose: 300.0 mg/kg/injection, schedule: Q04DX003 (ip), vehicle: Klucel (hydroxypropylcellulose) (HPC)) 97 % of control; under setting [10], 113 % of control.

In the case of `CCOC(=O)c1ccc(NC(=O)C(Br)C(Br)C(=O)O)cc1` (centres undefined), the T/C reads like this: under setting [14], 94 % of control; under setting [4], 101 % of control; under setting [15], 94 % of control; under setting [5], 100 % of control; under setting [16], 97 % of control; under setting [6], 101 % of control.

`CCOC(=O)C(NC(C)=O)(C(=O)OCC)C(C)C(O)c1ccc(OC)c(OC)c1O` (centres undefined): the T/C runs as follows: (dose: 100.0 mg/kg/injection, schedule: Q04DX003 (ip), vehicle: saline) 92 % of control; (dose: 200.0 mg/kg/injection, schedule: Q04DX003 (ip), vehicle: saline) 113 % of control; (dose: 400.0 mg/kg/injection, schedule: Q04DX003 (ip), vehicle: saline) 103 % of control.

On to `CC(C)(C)c1ccc(CC#N)cc1`, for which the T/C is, setting by setting: under setting [17], 97 % of control; (dose: 50.0 mg/kg/injection, schedule: Q04DX003 (ip), vehicle: Klucel (hydroxypropylcellulose) (HPC)) 94 % of control; under setting [8], 90 % of control.

As to `CC(=O)OCC(OC(C)=O)C1OCOC2COCOC21` (centres undefined), the T/C is, setting by setting: under setting [11], 108 % of control; under setting [12], 89 % of control; under setting [13], 101 % of control.

As for `O=C(NCCCN1CC1)C(=O)Nc1ccccc1`, the T/C was 92 % of control (dose: 12.5 mg/kg/injection, schedule: Q04DX003 (ip), vehicle: Klucel (hydroxypropylcellulose) (HPC)) and 101 % of control under setting [17].

`O=C(Cc1ccccn1)NCC(O)c1ccccc1` (centres undefined): the T/C is, setting by setting: under setting [1], 110 % of control; under setting [2], 91 % of control; under setting [3], 93 % of control.

In the case of `O=C1c2ccccc2CCCC1N1CCOCC1` (centres undefined), the T/C is, setting by setting: under setting [4], 95 % of control; under setting [5], 94 % of control; under setting [6], 87 % of control.

Take `C=CCCCCCCCCC(N)=O`: the T/C reads like this: (dose: 25.0 mg/kg/injection, schedule: Q01DX009 (ip), vehicle: saline with Tween-80) 108 % of control; (dose: 50.0 mg/kg/injection, schedule: Q01DX009 (ip), vehicle: saline with Tween-80) 96 % of control; under setting [4], 101 % of control; under setting [5], 95 % of control; under setting [6], 184 % of control.

With `O=[N+]([O-])c1ccc(/C=C2\c3ccccc3-c3nc4ccccc4nc32)cc1`, the T/C is, setting by setting: (dose: 75.0 mg/kg/injection, schedule: Q01DX001 (ip), vehicle: saline) 92 % of control; (dose: 300.0 mg/kg/injection, schedule: Q01DX001 (ip), vehicle: saline) 91 % of control.

As to `O=C(COc1ccc(Cl)c(Cl)c1)Nc1ccc[n+](Cc2ccc(Cl)cc2S(=O)(=O)F)c1`, the T/C by setting is: under setting [4], 97 % of control; under setting [5], 94 % of control; under setting [6], 101 % of control.

In the case of `NC(=O)c1ccc([N+](=O)[O-])s1`, the T/C was 98 % of control (dose: 25.0 mg/kg/injection, schedule: Q04DX003 (ip), vehicle: saline with Tween-80); 104 % of control (dose: 50.0 mg/kg/injection, schedule: Q04DX003 (ip), vehicle: saline with Tween-80); 100 % of control under setting [8]; 96 % of control under setting [4].
